Laboratory results taken from ChEMBL document CHEMBL5576125, “Discovery of Pyrazolopyrazines as Selective, Potent, and Mutant-Active MET Inhibitors with Intracranial Efficacy” (J Med Chem, 2024).
pIC50: −log10 of the molar value.

Legend:
[1] = molecular target: Hepatocyte growth factor receptor (Homo sapiens, UniProt P08581, F1200I); experiment: Displacement of tracer 236 from N-terminal GST-tagged recombinant human MET F1200I mutant (956 to end residues) expressed in Sf9 insect cells incubated for 1 hr by TR-FRET assay
[2] = molecular target: Hepatocyte growth factor receptor (Homo sapiens, UniProt P08581, Y1230H); experiment: Displacement of tracer 236 from N-terminal GST-tagged recombinant human MET Y1230H mutant (956 to end residues) expressed in Sf9 insect cells incubated for 1 hr by TR-FRET assay
Chain of Hepatocyte growth factor receptor (Homo sapiens, UniProt P08581, Y1230H) (P08581 25-1390 Y1230H limits assumed): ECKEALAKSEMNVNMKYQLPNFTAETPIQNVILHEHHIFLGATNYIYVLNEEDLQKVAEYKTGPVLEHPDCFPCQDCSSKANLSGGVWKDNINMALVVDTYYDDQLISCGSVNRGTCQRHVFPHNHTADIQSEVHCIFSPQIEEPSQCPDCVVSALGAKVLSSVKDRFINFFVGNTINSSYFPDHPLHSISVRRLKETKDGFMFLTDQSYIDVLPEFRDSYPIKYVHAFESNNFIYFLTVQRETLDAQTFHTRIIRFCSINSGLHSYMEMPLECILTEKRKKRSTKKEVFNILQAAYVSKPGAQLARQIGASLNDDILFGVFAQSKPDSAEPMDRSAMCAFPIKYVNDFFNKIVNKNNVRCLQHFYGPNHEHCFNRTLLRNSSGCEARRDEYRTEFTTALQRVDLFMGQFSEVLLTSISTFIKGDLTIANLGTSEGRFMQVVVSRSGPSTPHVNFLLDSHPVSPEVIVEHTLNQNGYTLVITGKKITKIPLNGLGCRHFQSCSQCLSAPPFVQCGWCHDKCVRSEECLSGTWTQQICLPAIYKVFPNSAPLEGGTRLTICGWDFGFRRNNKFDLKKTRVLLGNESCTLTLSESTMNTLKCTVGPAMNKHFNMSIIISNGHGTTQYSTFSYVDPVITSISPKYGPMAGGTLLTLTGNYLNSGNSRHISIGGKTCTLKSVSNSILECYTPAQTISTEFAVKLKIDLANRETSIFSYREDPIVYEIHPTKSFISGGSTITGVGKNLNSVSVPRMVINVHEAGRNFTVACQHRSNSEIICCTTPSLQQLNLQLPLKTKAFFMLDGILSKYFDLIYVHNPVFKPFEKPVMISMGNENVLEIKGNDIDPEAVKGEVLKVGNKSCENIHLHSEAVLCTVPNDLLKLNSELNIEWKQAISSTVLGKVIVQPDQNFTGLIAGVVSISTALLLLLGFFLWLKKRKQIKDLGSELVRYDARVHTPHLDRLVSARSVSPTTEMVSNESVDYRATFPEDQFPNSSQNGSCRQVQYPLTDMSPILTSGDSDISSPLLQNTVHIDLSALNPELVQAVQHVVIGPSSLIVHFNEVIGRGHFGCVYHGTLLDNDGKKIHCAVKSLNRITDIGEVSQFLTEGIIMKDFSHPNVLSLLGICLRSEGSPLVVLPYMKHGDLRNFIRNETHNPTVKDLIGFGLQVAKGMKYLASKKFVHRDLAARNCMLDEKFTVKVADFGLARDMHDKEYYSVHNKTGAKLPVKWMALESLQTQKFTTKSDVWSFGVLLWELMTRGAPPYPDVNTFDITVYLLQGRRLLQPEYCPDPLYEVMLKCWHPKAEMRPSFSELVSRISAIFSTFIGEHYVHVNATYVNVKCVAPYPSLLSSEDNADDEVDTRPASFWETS

[3] = molecular target: T1, Hepatocyte growth factor receptor (Homo sapiens, UniProt P08581, D1228N); experiment: Inhibition of MET D1228N mutant (unknown origin) transfected in mouse NIH3T3 cells incubated for 1 hr by In-Cell Western assay; assay type: cell-based
T1 sequence (P08581 25-1390 D1228N limits assumed): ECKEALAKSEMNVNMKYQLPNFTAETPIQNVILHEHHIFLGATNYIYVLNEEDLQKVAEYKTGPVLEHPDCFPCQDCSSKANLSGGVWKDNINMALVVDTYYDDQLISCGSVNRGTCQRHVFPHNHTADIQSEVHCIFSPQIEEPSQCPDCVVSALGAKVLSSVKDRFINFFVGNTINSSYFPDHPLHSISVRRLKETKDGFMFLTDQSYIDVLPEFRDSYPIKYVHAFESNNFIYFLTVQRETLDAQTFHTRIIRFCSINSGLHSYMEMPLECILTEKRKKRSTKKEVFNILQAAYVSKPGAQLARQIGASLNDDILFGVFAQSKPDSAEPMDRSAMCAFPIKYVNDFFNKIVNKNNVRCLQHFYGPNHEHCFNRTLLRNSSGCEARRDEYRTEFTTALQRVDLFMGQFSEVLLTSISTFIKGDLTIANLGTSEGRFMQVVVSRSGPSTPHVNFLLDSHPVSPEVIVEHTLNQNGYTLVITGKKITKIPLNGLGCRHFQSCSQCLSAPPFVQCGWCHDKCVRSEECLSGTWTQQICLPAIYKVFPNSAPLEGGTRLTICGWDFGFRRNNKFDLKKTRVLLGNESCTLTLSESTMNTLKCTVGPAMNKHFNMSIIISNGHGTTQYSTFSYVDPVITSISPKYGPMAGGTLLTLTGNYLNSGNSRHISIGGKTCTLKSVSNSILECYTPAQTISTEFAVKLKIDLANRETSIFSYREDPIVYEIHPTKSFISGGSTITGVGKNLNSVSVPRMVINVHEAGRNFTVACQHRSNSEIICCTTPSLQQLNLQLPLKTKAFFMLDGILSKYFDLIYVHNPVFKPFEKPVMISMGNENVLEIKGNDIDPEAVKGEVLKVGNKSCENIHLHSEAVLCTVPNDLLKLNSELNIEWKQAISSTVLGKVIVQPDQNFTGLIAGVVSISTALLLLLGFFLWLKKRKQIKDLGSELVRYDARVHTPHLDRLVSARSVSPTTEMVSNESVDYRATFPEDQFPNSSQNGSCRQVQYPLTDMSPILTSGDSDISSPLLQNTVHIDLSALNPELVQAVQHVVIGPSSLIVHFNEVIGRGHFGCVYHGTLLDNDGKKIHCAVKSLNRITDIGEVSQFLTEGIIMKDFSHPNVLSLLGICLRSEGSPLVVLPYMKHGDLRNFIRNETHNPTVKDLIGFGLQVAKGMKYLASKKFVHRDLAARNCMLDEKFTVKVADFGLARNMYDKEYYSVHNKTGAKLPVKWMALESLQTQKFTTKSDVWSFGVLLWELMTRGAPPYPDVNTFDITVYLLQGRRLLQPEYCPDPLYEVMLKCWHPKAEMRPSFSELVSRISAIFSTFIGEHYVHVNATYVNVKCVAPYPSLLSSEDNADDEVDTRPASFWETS

[4] = molecular target: T1, Hepatocyte growth factor receptor; experiment: Displacement of tracer 236 from N-terminal GST-tagged recombinant human MET D1228N mutant (956 to end residues) expressed in Sf9 insect cells incubated for 1 hr by TR-FRET assay
[5] = Displacement of tracer 236 from N-terminal GST-tagged recombinant human MET exon 14 deletion mutant (956 to end residues) expressed in Sf9 insect cells incubated for 1 hr by TR-FRET assay
[6] = Displacement of tracer 236 from N-terminal GST-tagged recombinant human MET […] mutant (956 to end residues) expressed in Sf9 insect cells incubated for 1 hr by TR-FRET assay
[7] = Metabolic stability in human hepatocytes assessed as clearance at 2 uM measured upto 120 mins by LC-MS/MS analysis; assay type: ADME, cell-based, Hepatocyte
[8] = Metabolic stability in mouse hepatocytes assessed as clearance at 2 uM measured upto 120 mins by LC-MS/MS analysis; assay type: ADME, cell-based, Hepatocyte
[9] = Apparent permeability across apical to basolateral side in MDCKII-MDR1 cells at 1 uM incubated for 2 hrs in orbital shaker by LC-MS/MS analysis; assay type: ADME, cell-based, Canis lupus familiaris; settings: dog, MDCK-MDR1
[10] = molecular target: Vascular endothelial growth factor receptor 2 (Homo sapiens, UniProt P35968); experiment: Inhibition of VEGFR-2 (unknown origin) by cell based assay; assay type: toxicity
Chain of Vascular endothelial growth factor receptor 2 (P35968 whole entry): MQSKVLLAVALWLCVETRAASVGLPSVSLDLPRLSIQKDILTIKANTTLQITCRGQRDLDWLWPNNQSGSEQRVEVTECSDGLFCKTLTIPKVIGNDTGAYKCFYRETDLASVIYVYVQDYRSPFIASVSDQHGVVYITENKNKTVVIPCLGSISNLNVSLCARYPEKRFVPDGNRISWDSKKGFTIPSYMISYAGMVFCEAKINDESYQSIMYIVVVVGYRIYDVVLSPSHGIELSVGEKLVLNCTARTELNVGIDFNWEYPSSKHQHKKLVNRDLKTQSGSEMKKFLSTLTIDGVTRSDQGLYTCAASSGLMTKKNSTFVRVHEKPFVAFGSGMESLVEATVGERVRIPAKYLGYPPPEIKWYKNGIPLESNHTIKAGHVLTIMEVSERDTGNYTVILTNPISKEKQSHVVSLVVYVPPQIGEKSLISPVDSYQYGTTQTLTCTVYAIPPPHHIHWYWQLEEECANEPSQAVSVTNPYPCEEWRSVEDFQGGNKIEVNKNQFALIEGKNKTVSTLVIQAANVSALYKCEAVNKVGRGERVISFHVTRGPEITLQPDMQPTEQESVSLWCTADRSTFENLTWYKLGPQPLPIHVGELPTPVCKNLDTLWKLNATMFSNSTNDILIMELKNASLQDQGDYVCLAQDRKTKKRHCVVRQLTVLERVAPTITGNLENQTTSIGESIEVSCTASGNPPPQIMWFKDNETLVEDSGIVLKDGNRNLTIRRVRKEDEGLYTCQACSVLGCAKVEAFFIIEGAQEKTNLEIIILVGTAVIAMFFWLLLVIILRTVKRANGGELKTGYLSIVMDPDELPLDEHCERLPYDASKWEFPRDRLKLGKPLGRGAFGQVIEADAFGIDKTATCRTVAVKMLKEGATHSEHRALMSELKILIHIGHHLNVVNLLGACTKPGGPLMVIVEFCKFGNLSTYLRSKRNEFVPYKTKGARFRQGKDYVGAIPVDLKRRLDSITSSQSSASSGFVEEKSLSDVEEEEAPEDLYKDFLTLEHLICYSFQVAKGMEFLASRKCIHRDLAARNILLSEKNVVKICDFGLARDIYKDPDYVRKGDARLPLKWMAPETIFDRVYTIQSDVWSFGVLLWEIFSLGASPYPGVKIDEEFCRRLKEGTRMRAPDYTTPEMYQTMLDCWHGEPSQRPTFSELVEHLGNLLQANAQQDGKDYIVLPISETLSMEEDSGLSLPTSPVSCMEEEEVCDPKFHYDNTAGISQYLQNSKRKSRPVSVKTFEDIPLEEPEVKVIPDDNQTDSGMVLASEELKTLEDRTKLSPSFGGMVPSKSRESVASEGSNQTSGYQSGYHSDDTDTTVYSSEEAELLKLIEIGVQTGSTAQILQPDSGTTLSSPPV

[11] = Efflux ratio of apparent permeability across basolateral to apical over apical to basolateral side in MDCKII-MDR1 cells at 1 uM incubated for 2 hrs in orbital shaker by LC-MS/MS analysis; assay type: ADME, cell-based, Canis lupus familiaris; settings: dog, MDCK-MDR1

pIC50 [1] | pIC50 [2] | pIC50 [3] | pIC50 [4] | CLhep predicted at 2 µM [7] [mL/min/kg] | CLhep predicted at 2 µM [8] [mL/min/kg] | Papp A→B at 2 h, 1 µM [9] [×10⁻⁶ cm/s] | efflux ratio at 2 h, 1 µM [11] | SMILES | pIC50 [5] | pIC50 [6] | pIC50 [10]
6.77 | 8.22 | 7.41 | 8.15 | – | – | – | – | CO[C@H]1C[C@@H](N(c2cc(F)c(NC(=O)c3ccnn(-c4ccc(F)cn4)c3=O)cc2F)c2cccn3nccc23)C1 | 8.40 | 7.34 | –
6.65 | 7.52 | 6.80 | 7.62 | – | – | – | – | O=C(Nc1cc(F)c(N(c2cccn3nccc23)C2CCC2)cc1F)c1ccnn(-c2ccc(F)cc2)c1=O | 7.80 | 7.24 | –
7.01 | 8.30 | 7.40 | 8.22 | 9 | 31 | 15 | – | Cc1cc(N(c2cc(F)c(NC(=O)c3ccnn(-c4ccc(F)cn4)c3=O)cc2F)[C@H]2C[C@H](c3ccn(C)n3)C2)c(F)cn1 | – | 7.44 | –
– | – | – | – | – | – | – | – | COCCNCc1ccc(-c2cc3nccc(Oc4ccc(NC(=S)NC(=O)Cc5ccc(F)cc5)cc4F)c3s2)nc1 [GLESATINIB] | – | – | 6.76
7.44 | 8.40 | 7.70 | 8.30 | 21 | 77 | 5 | – | Cn1ccc([C@H]2C[C@H](N(c3cc(F)c(NC(=O)c4ccnn(-c5ccc(F)cn5)c4=O)cc3F)c3cccn4nccc34)C2)n1 | – | 7.92 | –
5.30 | 6.12 | < 5.30 | 5.75 | – | – | – | 0.9 | Cc1cc2c(N(c3cc(F)c(NC(=O)c4ccnn(-c5ccc(F)cn5)c4=O)cc3F)[C@H]3C[C@H](c4ccn(C)n4)C3)nccn2n1 | 6.40 | – | –
5.48 | 7.49 | 6.28 | 7.10 | – | – | – | – | Cn1ccc([C@H]2C[C@H](N(c3cc(C(F)F)c(NC(=O)c4ccnn(-c5ccc(F)cn5)c4=O)cc3F)c3nccn4nccc34)C2)n1 | 7.89 | 6.03 | –
6.12 | 7.04 | 6.47 | 7.07 | – | – | – | – | CC(C)N(c1cc(F)c(NC(=O)c2ccnn(-c3ccc(F)cc3)c2=O)cc1F)c1cccn2nccc12 | 7.15 | 6.53 | –
7.27 | 7.77 | 7.66 | 7.96 | 12 | 38 | – | – | COc1cc(N(c2cc(F)c(NC(=O)c3ccnn(-c4ccc(F)cn4)c3=O)cc2F)[C@H]2C[C@H](c3ccn(C)n3)C2)c2ccnn2c1 | 7.80 | 7.49 | –
